From publication PMC2893881 (Bioorganic & medicinal chemistry, 2010)
Read-outs that look alike come from different tables or passages of the source.

Tests used:
rhodesain = rhodesain (Trypanosoma brucei rhodesiense, UniProt Q95PM0); assay: Cysteine protease inhibition assay, rhodesain; type: biochemical; conditions: for IC50 (μM) Cysteine Protease rho (rhodesain): rhodesain 4 nM, Z-Phe-Arg-AMC 10 μM, pH 5.5
TbCatB = TbCatB (Trypanosoma brucei, UniProt Q6R7Z5); assay: Cysteine protease inhibition assay, TbCatB; type: biochemical; conditions: TbCatB 258 nM, Z-Phe-Arg-AMC 10 μM, pH 5.5
[1] = tested on: human lung carcinoma (A549) cells; conditions: at 1 μM; cited from earlier work
[2] = tested on: Jurkat cells (clone E6-1); assay: Jurkat cell cytotoxicity assay; type: cell-based; conditions: for Selectivity Index = (IC50 Jurkat) / (IC50 T. brucei): Jurkat vs T. brucei; for IC50: read-out: IC50 (μM) Jurkat
T. brucei brucei = assay: Trypanosoma brucei brucei growth inhibition assay; type: cell-based; conditions: bloodstream forms clone 427-221a, 40 hours, ATP-bioluminescence, ± standard deviation of the mean
animals = conditions: cited from earlier work
patients = conditions: clinical use, second stage sleeping sickness; cited from earlier work
[3] = Jurkat cells, 40 hr, ATP-bioluminescence

## CS[C@]1(Cc2c[nH]c3ccccc23)NC(=O)[C@](CO)(SC)N(C)C1=O [Compound 8, chetoseminudin B]
rhodesain
  IC50 (μM) Cysteine Protease rho (rhodesain): inactivity
TbCatB
  IC50 (μM) Cysteine Protease Tbc (TbcatB): inactivity

## phenylahistin [Compound 2a]
[1]
  cell cycle inhibition activity: cell cycle inhibition activity in the G2/M phase

## CN1C(=O)[C@]23CC4=CC=C[C@H](O)[C@H]4N2C(=O)[C@@]1(CO)SS3 [Compound 10, gliotoxin, reference compound]
TbCatB
  IC50 (μM) Cysteine Protease Tbc (TbcatB): showed inhibition of TbCatB
[2]; [3]
  IC50 (μM) Jurkat: substantial toxicity to mammalian cells
[2]
  Selectivity Index = (IC50 Jurkat) / (IC50 T. brucei): low ^g (Toxic to Jurkat cells at <1 μM)
T. brucei brucei
  IC50 (μM) T. brucei: nanomolar activity

## CN1C(=O)[C@@]23C[C@]4([C@]56C[C@@]78SS[C@@](CO)(C(=O)N7[C@H]5Nc5ccccc56)N(C)C8=O)c5ccccc5N[C@@H]4N2C(=O)[C@]1(CO)SS3 [Compound 12, chaetocin]
[2]; [3]
  IC50 (μM) Jurkat: substantial toxicity to mammalian cells
[2]
  Selectivity Index = (IC50 Jurkat) / (IC50 T. brucei): low (Toxic to Jurkat cells at <1 μM)
T. brucei brucei
  IC50 (μM) T. brucei: nanomolar activity

## CS[C@]1(CO)C(=O)N2c3c(O)cccc3C[C@@]2(SC)C(=O)N1C [Compound 4, dehydrobis(methylthio)gliotoxin]
rhodesain
  IC50 (μM) Cysteine Protease rho (rhodesain): binds to rhodesain
[2]
  Selectivity Index = (IC50 Jurkat) / (IC50 T. brucei): > 15
T. brucei brucei
  IC50 (μM) T. brucei: trypanocidal in the low micromolar range

## fumitremorgin B [Compound 19]
animals
  tremors in animals: cause tremors in animals
[2]
  Selectivity Index = (IC50 Jurkat) / (IC50 T. brucei): 5.3
[2]; [3]
  IC50: 104 µM
T. brucei brucei; read-out: IC50 (μM) T. brucei
  IC50: 19.5 ± 5.9 µM

## COc1ccc2c3c4n(c2c1)[C@H](C=C(C)C)OOC(C)(C)C[C@@H]4N1C(=O)[C@@H]2CCCN2C(=O)[C@]1(O)[C@H]3O [Compound 17, verruculogen]
animals
  tremors in animals: cause tremors in animals

## CN1C(=O)[C@]23SS[C@@]1(C)C(=O)N2[C@H]1Nc2ccccc2[C@@]1([C@@]12c4ccccc4N[C@@H]1N1C(=O)[C@]4(CO)SS[C@]1(C(=O)N4C)[C@H]2O)[C@@H]3O [Compound 11, verticillin B]
[2]; [3]
  IC50 (μM) Jurkat: substantial toxicity to mammalian cells
[2]
  Selectivity Index = (IC50 Jurkat) / (IC50 T. brucei): low (Toxic to Jurkat cells at <1 μM)
T. brucei brucei
  IC50 (μM) T. brucei: nanomolar activity

## CS[C@]1(CO)C(=O)N2[C@H]3C(=CC=C[C@@H]3O)C[C@@]2(SC)C(=O)N1C [Compound 3, bis(methylthio)gliotoxin]
rhodesain
  IC50 (μM) Cysteine Protease rho (rhodesain): inactivity
TbCatB
  IC50 (μM) Cysteine Protease Tbc (TbcatB): inactivity
[2]; [3]
  IC50 (μM) Jurkat: not being toxic

## COc1ccc2c3c([nH]c2c1)C(C=C(C)C)N1C(=O)C2CCCN2C(=O)C1(O)C3O (stereo not drawn) [Compound 20, 12,13-dihydroxyfumitremorgin C]
rhodesain
  IC50: 10.9 µM
  IC50 (μM) Cysteine Protease rho (rhodesain): binds to rhodesain
[2]; Homo sapiens, Jurkat, 40 h
  IC50: 97.2 µM
[2]
  Selectivity Index = (IC50 Jurkat) / (IC50 T. brucei): > 15
T. brucei brucei
  IC50 (μM) T. brucei: trypanocidal in the low micromolar range

## Nc1nc(N)nc(Nc2ccc([As]3SCC(CO)S3)cc2)n1 (stereo not drawn) [Compound 25, melarsoprol]
patients
  mortality rate: approximately 5%

## CS[C@]1(CO)C(=O)N2[C@H]3C(=CC=C[C@@H]3OC(C)=O)C[C@@]2(SC)C(=O)N1C [Compound 7, 6-acetylbis(methylthio)gliotoxin]
rhodesain
  IC50 (μM) Cysteine Protease rho (rhodesain): binds to rhodesain
[2]
  Selectivity Index = (IC50 Jurkat) / (IC50 T. brucei): > 15
T. brucei brucei
  IC50 (μM) T. brucei: trypanocidal in the low micromolar range
